{"source": "patent US11484529B2", "about": "“Desmethylanethole trithione derivatives for the treatment of diseases linked to mitochondrial reactive oxygen species (ROS) production” (OP2 Drugs, priority 2017, dated 2022)", "tested_on": "pulmonary arterial smooth muscle cells (PASMC)", "assay": "PASMC proliferation (BrdU incorporation)", "assay_type": "cell-based", "conditions": "AOL 10, 20, 60 or 100 μM, 24 hours", "protocol": "Detection of pulmonary arterial smooth muscle cells (PASMC) proliferation was assayed by using a colorimetric immunoassay kit (Roche Applied Science, Indianapolis, Ind., USA) based on the measurement of 5-bromo-2′-deoxy-uridine (BrdU) incorporation during DNA synthesis.\nIsolated PASMC were seeded in culture medium supplemented with 10% fetal calf serum (FCS) at a density of 5·10^3 cells/well/100 μL in a 96-well culture plate. The culture plate was placed in a humidified incubator at 37° C. under 5% CO2 in air. After 48 hours, cells were subjected to 48 hours of growth arrest in serum-free culture medium supplemented with 1% insulin-transferrin-selenium. At the end of this period, PASMC were incubated for 24 hours in culture medium containing either: • 0.2% FCS (control condition); • 0.2% FCS+10, 20, 60 or 100 μM AOL; • 0.2% FCS+100 μM 5HT (serotonin); • 0.2% FCS+100 μM 5HT+10, 20, 60 or 100 μM AOL; • 10% FCS; • 10% FCS+10, 20, 60 or 100 μM AOL.\nEach condition was tested in triplicate. 10 μL of BrdU (100 μM) was then added to the media and cells were incubated for an additional 2 hours at 37° C. […] Newly synthesized BrdU DNA was determined by measuring absorbance of the samples in an ELISA reader (Spectrostar/nano; BMG Labtech, Champigny-sur-Marne, France) at a wavelength of 380 nm with a reference wavelength of 490 nm.", "data": [{"smiles": "COc1ccc(-c2cc(=S)ss2)cc1", "note": "[AOL, 5-(4-methoxyphenyl)-3H-1,2-dithiole-3-thione]", "values": [{"measurement": "PASMC proliferation in presence of 0.2% FCS and 100 μM 5HT", "value": "successfully inhibited the proliferation"}, {"measurement": "PASMC proliferation induced by 10% FCS", "value": "successfully inhibited the proliferation"}]}]}
